Data set [1] addresses Muscarinic acetylcholine receptor M3 (Homo sapiens, UniProt P20309). The data set is described as follows: Inhibition of human muscarinic M3 receptor by cell based functional assay.
Data set [2] deals with T1, Muscarinic acetylcholine receptor M2 (Homo sapiens, UniProt P08172).
T1 sequence (P08172 whole entry): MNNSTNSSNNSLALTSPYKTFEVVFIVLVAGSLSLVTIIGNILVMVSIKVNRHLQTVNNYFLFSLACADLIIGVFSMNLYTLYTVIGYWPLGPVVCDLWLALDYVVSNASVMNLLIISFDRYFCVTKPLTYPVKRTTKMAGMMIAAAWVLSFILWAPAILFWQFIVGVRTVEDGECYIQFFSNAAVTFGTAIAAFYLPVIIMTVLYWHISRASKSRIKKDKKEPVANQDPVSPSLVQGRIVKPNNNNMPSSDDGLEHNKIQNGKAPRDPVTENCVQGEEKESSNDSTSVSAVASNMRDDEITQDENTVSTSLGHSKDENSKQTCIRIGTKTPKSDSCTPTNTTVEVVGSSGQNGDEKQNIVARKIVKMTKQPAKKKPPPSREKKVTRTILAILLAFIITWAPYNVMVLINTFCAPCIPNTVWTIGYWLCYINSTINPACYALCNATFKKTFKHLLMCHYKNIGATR
The data set is described as follows: Inhibition of human muscarinic M2 receptor by cell based functional assay.

Data set [3] addresses T2, Muscarinic acetylcholine receptor M1 (Homo sapiens, UniProt P11229).
T2 sequence (P11229 whole entry): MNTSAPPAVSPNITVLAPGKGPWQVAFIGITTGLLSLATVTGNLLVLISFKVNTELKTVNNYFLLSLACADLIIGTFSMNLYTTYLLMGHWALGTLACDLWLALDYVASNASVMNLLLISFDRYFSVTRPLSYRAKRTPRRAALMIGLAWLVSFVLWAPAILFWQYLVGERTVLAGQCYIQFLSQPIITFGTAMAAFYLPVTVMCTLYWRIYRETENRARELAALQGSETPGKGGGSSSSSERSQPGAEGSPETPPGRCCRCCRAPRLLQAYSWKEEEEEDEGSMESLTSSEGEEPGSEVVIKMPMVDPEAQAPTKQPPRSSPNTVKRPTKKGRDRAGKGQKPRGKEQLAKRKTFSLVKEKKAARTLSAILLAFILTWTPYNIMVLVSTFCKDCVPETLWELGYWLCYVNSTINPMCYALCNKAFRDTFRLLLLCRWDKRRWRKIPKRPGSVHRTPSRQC
The data set is described as follows: Inhibition of human muscarinic M1 receptor by cell based functional assay.

The next data set deals with Cytochrome P450 2D6 (Homo sapiens, UniProt P10635). The experiment in a line: Inhibition of human CYP2D6. Format: ADME.
Chain of Cytochrome P450 2D6 (P10635 whole entry): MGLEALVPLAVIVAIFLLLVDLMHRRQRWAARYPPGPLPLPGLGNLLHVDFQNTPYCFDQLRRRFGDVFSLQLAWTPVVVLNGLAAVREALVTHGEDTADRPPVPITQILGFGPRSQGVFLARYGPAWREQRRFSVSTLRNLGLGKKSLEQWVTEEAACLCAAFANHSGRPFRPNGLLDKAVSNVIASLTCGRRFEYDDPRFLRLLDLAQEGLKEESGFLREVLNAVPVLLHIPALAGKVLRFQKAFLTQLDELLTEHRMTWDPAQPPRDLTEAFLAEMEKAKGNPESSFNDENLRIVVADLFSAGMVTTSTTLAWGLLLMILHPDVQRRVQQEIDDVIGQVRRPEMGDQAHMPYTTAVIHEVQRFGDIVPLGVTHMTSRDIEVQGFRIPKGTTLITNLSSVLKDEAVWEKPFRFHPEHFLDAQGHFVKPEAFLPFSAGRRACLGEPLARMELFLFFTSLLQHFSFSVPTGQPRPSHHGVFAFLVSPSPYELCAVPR
Another data set concerns the target Cytochrome P450 2C19 (Homo sapiens, UniProt P33261). The data set is described as follows: Inhibition of human CYP2C19. Format: ADME.
Data set [4] can be described thus: Plasma clearance in rat at 3 mg/kg, iv or 10 mg/kg, po. Format: ADME, organism-based.
Data set [5] in a line: Oral bioavailability life in rat at 10 mg/kg. Format: ADME, organism-based. As to conditions: in vivo; call rule not given here.

Chain of Muscarinic acetylcholine receptor M3 (P20309 whole entry): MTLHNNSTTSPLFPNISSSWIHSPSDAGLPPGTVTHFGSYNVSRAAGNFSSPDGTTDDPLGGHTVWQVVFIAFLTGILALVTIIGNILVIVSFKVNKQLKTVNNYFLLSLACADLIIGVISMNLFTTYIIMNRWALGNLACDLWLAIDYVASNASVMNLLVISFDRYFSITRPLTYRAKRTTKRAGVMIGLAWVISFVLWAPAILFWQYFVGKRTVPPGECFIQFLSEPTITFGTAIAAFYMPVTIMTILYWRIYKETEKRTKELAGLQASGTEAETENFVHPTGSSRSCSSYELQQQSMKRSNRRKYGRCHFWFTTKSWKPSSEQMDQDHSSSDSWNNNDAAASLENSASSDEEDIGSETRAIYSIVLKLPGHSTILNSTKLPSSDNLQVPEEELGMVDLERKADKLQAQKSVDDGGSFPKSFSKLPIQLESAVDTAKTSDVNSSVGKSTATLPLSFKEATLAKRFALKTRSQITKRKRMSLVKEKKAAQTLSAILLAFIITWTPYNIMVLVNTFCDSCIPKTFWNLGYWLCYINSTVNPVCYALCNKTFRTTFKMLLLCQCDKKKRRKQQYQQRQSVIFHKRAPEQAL
Chain of Cytochrome P450 2C19 (P33261 whole entry): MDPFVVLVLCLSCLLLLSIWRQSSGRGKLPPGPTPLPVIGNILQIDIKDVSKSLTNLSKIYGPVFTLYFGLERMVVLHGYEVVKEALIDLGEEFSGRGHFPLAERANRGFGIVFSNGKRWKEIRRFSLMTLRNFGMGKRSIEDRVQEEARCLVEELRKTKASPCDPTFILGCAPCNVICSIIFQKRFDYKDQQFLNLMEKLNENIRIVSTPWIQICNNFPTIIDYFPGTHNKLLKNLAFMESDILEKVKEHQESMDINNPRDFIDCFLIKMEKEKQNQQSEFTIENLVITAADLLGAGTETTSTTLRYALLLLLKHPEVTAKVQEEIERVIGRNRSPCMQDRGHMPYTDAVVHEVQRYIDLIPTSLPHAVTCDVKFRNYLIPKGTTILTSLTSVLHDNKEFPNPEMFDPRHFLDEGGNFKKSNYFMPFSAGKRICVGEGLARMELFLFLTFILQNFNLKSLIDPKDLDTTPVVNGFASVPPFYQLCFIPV

For the compound `CNCCN1CCCc2cc(NC(=N)c3cccs3)ccc21`, the EC50 in data set [1], in data set [2] and in data set [3] was more than 40 µM throughout. Moreover, the “inhibition (INH)” value against Cytochrome P450 2D6 and against Cytochrome P450 2C19 was “Not Active” each time. This compound had a clearance in data set [4] of 87.7 mL/min/kg. Further, in data set [5], the bioavailability (as a rule, dose-corrected exposure relative to a reference, in per cent) was determined as 59.9%.

These data come from ChEMBL document CHEMBL2163286, “1,2,3,4-tetrahydroquinoline-based selective human neuronal nitric oxide synthase (nNOS) inhibitors: lead optimization studies resulting in the identification of N-(1-(2-(methylamino)ethyl)-1,2,3,4-tetrahydroquinolin-6-yl)thiophene-2-carboximidamide as a preclinical development candidate” (J Med Chem, 2012).
